# Data as given in US20240018161A1, “MODULATORS OF CYSTIC FIBROSIS TRANSMEMBRANE CONDUCTANCE REGULATOR” (VERTEX PHARMACEUTICALS INCORPORATED, priority 2020, published 2024).
# Read-outs that look alike come from different tables or passages of the source.
# What was measured:
# [1] = target: CFTR-mediated chloride transport in human intestinal epithelial enteroid cells (Homo sapiens, UniProt P13569); experiment: Membrane potential dye, Enteroid Assay A; type: cell-based; conditions: for EC50: enteroid cells incubated with test compound 18-24 hours, acute 10 μM forskolin and 300 nM N-[2,4-bis(1,1-dimethylethyl)-5-hydroxyphenyl]-1,4-dihydro-4-oxoquinoline-3-carboxamide, read-out: Ent. A EC50; for Ent. A Max Activity (%): percentage of chloride transport of triple combination control (3 μM N-[(6-amino-2-pyridyl)sulfonyl]-6-(3-fluoro-5-isobutoxy-phenyl)-2-[(4S)-2,2,4-trimethylpyrrolidin-1-yl]pyridine-3-carboxamide based)
# Procedure, shortened: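 Membrane potential dye (20 μM methyl oxonol, with 30 μM CaCCinh-A01 and 30 μM Chicago Sky Blue) loaded 25 min at room temperature into ROCK-inhibitor-seeded human enteroid cells. Chloride-free stimulation buffer triggered transport, followed by 15 min fluorescence. % Activity relative to 3 μM/3 μM/300 nM triple-combination control.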
# [2] = from Cc1cccc(C)c1-c1cc(OCC2c3ccc(C(C)(C)C)cc3CNC2C)nc(NS(=O)(=O)c2cccc(C(=O)O)c2)n1, amide bond, 14-membered ring, HATU/TEA, DMF, 44.8 mM, 50.0 °C, 0.5 h, 2 steps
# [3] = from Cc1cccc(C)c1-c1cc(Cl)nc(NS(=O)(=O)c2cccc(C(=O)N3CCN(C(C)C(C)(C)C)C[C@@H](O)C3)c2)n1, snar bond, 13-membered ring, NaH, DMF, 31.4 mM, 0.0 °C, 7.0 h
# CFTR-mediated chloride transport in human intestinal epithelial enteroid cells, sequence (P13569 with tags, fused parts or gaps DEL508-508): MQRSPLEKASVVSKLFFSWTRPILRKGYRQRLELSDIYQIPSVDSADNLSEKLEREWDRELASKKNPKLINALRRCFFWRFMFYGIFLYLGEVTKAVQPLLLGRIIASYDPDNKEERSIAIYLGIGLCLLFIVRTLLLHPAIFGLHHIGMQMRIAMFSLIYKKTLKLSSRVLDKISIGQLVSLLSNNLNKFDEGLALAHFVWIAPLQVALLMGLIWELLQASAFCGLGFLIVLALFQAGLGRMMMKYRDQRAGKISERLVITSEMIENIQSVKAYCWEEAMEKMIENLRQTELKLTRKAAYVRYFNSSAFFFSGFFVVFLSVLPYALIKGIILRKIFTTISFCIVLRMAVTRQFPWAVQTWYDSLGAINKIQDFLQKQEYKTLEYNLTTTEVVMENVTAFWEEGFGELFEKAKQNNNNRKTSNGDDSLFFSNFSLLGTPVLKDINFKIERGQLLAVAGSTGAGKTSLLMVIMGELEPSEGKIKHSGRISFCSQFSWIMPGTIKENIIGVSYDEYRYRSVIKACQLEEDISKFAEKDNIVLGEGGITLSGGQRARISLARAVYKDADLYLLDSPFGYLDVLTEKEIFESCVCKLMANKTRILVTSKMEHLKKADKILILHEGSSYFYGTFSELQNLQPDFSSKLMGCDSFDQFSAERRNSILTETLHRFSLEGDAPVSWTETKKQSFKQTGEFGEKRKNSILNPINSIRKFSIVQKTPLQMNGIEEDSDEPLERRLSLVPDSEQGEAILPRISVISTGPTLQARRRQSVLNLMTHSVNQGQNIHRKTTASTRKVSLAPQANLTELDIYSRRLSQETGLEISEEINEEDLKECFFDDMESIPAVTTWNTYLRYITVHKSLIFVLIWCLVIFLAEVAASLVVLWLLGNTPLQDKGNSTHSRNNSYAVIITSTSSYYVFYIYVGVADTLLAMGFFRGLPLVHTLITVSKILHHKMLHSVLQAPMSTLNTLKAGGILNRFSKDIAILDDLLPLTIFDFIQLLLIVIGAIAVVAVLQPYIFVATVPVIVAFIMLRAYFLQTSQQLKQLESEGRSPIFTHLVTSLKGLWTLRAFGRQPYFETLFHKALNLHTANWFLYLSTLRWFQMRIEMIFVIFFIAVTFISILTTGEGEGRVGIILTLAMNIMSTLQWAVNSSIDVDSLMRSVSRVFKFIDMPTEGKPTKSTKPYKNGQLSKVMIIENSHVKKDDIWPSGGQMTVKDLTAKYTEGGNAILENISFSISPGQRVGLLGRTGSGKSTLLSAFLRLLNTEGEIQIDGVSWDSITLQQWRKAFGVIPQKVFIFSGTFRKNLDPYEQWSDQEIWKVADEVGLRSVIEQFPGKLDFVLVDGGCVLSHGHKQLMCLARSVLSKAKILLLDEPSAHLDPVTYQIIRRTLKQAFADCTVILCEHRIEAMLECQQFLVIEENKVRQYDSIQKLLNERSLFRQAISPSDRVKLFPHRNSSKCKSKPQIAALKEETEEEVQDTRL
compound,measurement,setting,value
"Cc1cccc(C)c1-c1cc2nc(n1)NS(=O)(=O)c1cccc(c1)C(=O)N1Cc3cccnc3C(C1)O2 (single isomer, unassigned) [Compound 195, 12-(2,6-dimethylphenyl)-15-oxa-8λ^6-thia-1,9,11,18,25-pentaazapentacyclo[14.7.1.13,7.110,14.017,22]hexacosa-3,5,7(26),10(25),11,13,17,19,21-nonaene-2,8,8-trione]","ring closure, yield after HPLC","from Cc1cccc(C)c1-c1cc(OC2CNCc3cccnc32)nc(NS(=O)(=O)c2cccc(C(=O)O)c2)n1, amide bond, 13-membered ring, HATU/DIEA, DMF, 8.0 mM, 1.0 h",76%
same,EC50,[1],3 to 30 µM
same,Ent. A Max Activity (%),[1],++ (++ is 30-60%)
"Cc1cccc(C)c1-c1cc2nc(n1)NS(=O)(=O)c1cccc(c1)C(=O)N1Cc3ncccc3C(C1)O2 (centres unmarked) [Compound 198, 12-(2,6-Dimethylphenyl)-15-oxa-8λ^6-thia-1,9,11,21,25-pentaazapentacyclo[14.7.1.13,7.110,14.017,22]hexacosa-3,5,7(26),10(25),11,13,17,19,21-nonaene-2,8,8-trione]","ring closure, yield after HPLC","from Cc1cccc(C)c1-c1cc(OC2CNCc3ncccc32)nc(NS(=O)(=O)c2cccc(C(=O)O)c2)n1, amide bond, 13-membered ring, HATU/DIEA, NMP, 132.0 mM, 25.0 °C, 1.0 h",44%
same,EC50,[1],1 to 3 µM
same,Ent. A Max Activity (%),[1],++ (++ is 30-60%)
"Cc1cccc(C)c1-c1cc2nc(n1)NS(=O)(=O)c1cccc(c1)C(=O)N1CCN(C(=O)OCc3ccccc3)CC(O2)[C@H]1C (single isomer, unassigned; diastereomer 2)","ring closure, yield after HPLC","from Cc1cccc(C)c1-c1cc(Cl)nc(NS(=O)(=O)c2cccc(C(=O)N3CCN(C(=O)OCc4ccccc4)CC(O)[C@H]3C)c2)n1, snar bond, 13-membered ring, NaH, DMF, 30.1 mM, 0.0 °C, 1.5 h",7%
"Cc1cccc(C)c1-c1cc2nc(n1)NS(=O)(=O)c1cccc(c1)C(=O)N1Cc3cc(C(C)(C)C)ccc3C(CO2)C1C (single isomer, unassigned; enantiomer 1)","ring closure, yield after HPLC",[2],2%
"Cc1cccc(C)c1-c1cc2nc(n1)NS(=O)(=O)c1cccc(c1)C(=O)N1CC(CC(c3ccccc3)C1)O2 (single isomer, unassigned; diastereomer 1)","ring closure, yield after HPLC","from 3-[[4-(2,6-dimethylphenyl)-6-[(5-phenyl-3-piperidyl)oxy]pyrimidin-2-yl]sulfamoyl]benzoic acid (hydrochloride salt), diastereomer 1, amide bond, 13-membered ring, HATU/DIEA, DMF, 37.8 mM, 25.0 °C, 3 steps",1%
"Cc1cccc(C)c1-c1cc2nc(n1)NS(=O)(=O)c1cccc(c1)C(=O)N1CCN(C(C)C(C)(C)C)C[C@H](C1)O2 (single isomer, unassigned; diastereomer 1)","ring closure, yield after HPLC",[3],36%
Cc1cccc(C)c1-c1cc2nc(n1)NS(=O)(=O)c1cccc(c1)C(=O)N1Cc3cc(C(F)(F)F)ccc3[C@H](O2)[C@H]1CC(C)C,"ring closure, yield after HPLC","from Cc1cccc(C)c1-c1cc(O[C@H]2c3ccc(C(F)(F)F)cc3CN[C@@H]2CC(C)C)nc(NS(=O)(=O)c2cccc(C(=O)O)c2)n1, amide bond, 13-membered ring, HATU/NaOtBu, DMF/THF, 0.25 h, 3 steps",5%
"Cc1cccc(C)c1-c1cc2nc(n1)NS(=O)(=O)c1cccc(c1)C(=O)N1CC(O2)C2CCCN(C)C2C1 (single isomer, unassigned; diastereomer 1)","ring closure, yield after HPLC","from Cc1cccc(C)c1-c1cc(OC2CNCC3C2CCCN3C)nc(NS(=O)(=O)c2cccc(C(=O)O)c2)n1, amide bond, 13-membered ring, HATU/DIEA, DMF, 20.5 mM, 25.0 °C, 1.0 h",54%
"Cc1cccc(C)c1-c1cc2nc(n1)NS(=O)(=O)c1cccc(c1)C(=O)N1CC(CC(c3ccccc3)C1)O2 (single isomer, unassigned; diastereomer 2)","ring closure, yield after HPLC","from 3-[[4-(2,6-dimethylphenyl)-6-[(5-phenyl-3-piperidyl)oxy]pyrimidin-2-yl]sulfamoyl]benzoic acid (hydrochloride salt), diastereomer 2, amide bond, 13-membered ring, HATU/DIEA, DMF, 61.9 mM, 25.0 °C, 3 steps",31%
Cc1cccc(C)c1-c1cc2nc(n1)NS(=O)(=O)c1cccc(c1)C(=O)N1C(c3cncc(N(C)C4CCC4)n3)CC[C@H](O2)[C@H]1CC(C)C (some centres unmarked),"ring closure, yield after HPLC","from Cc1cccc(C)c1-c1cc(Cl)nc(NS(=O)(=O)c2cccc(C(=O)N3C(c4cncc(N(C)C5CCC5)n4)CC[C@H](O)[C@H]3CC(C)C)c2)n1, snar bond, 13-membered ring, NaH, DMF, 21.5 mM, 24.0 h",4%
same,"ring closure, yield after HPLC","from Cc1cccc(C)c1-c1cc(O[C@H]2CCC(c3cncc(N(C)C4CCC4)n3)N[C@@H]2CC(C)C)nc(NS(=O)(=O)c2cccc(C(=O)O)c2)n1, amide bond, 13-membered ring, CDMT/NMM, DMF, 16.6 mM, 48.0 h, 2 steps",31.6%
Cc1cccc(C)c1-c1cc2nc(n1)NS(=O)(=O)c1cccc(c1)C(=O)N1CC(O2)C2CCCN(C)C2C1 (centres unmarked),"ring closure, yield after HPLC","from Cc1cccc(C)c1-c1cc(OC2CNCC3C2CCCN3C)nc(NS(=O)(=O)c2cccc(C(=O)O)c2)n1, amide bond, 13-membered ring, HATU/DIEA, DMF, 27.2 mM, 25.0 °C, 0.67 h",10%
Cc1cccc(C)c1-c1cc2nc(n1)NS(=O)(=O)c1cccc(c1)C(=O)N1CC(CCC1c1ccccc1)O2 (centres unmarked),"ring closure, yield after HPLC","from Cc1cccc(C)c1-c1cc(OC2CCC(c3ccccc3)NC2)nc(NS(=O)(=O)c2cccc(C(=O)O)c2)n1, amide bond, 13-membered ring, HATU/DIEA, DMF, 156.0 mM, 25.0 °C, 0.083 h, 3 steps",37%
same,"ring closure, yield after HPLC","from Cc1cccc(C)c1-c1cc(OC2CCC(c3ccccc3)NC2)nc(NS(=O)(=O)c2cccc(C(=O)Oc3c(F)c(F)c(F)c(F)c3F)c2)n1, amide bond, 13-membered ring, thermal (OPfp ester), NMP, 36.0 mM, 130.0 °C, 1.0 h, 4 steps",7%
"Cc1cccc(C)c1-c1cc2nc(n1)NS(=O)(=O)c1cccc(c1)C(=O)N1Cc3cc(C(C)(C)C)ccc3C(CO2)C1C (single isomer, unassigned; enantiomer 2)","ring closure, yield after HPLC",[2],1%
Cc1cccc(C)c1-c1cc2nc(n1)NS(=O)(=O)c1cccc(c1)C(=O)N1Cc3ccncc3C(C1)O2 (centres unmarked),"ring closure, yield after HPLC","from Cc1cccc(C)c1-c1cc(OC2CNCc3ccncc32)nc(NS(=O)(=O)c2cccc(C(=O)O)c2)n1, amide bond, 13-membered ring, HATU/DIEA, DMF, 23.5 mM, 0.5 h, 2 steps",3%
Cc1ccccc1-c1cc2nc(n1)NS(=O)(=O)c1cccc(c1)C(=O)N1Cc3ccccc3[C@H](O2)[C@H]1CC(C)C,"ring closure, yield after HPLC","from Cc1ccccc1-c1cc(O[C@H]2c3ccccc3CN[C@@H]2CC(C)C)nc(NS(=O)(=O)c2cccc(C(=O)O)c2)n1, amide bond, 13-membered ring, HATU/DIEA, DMF, 190.0 mM, 0.5 h, 3 steps",18%
Cc1cccc(C)c1-c1cc2nc(n1)NS(=O)(=O)c1cccc(c1)C(=O)N1CC(O2)c2ccccc2C1CC(C)C (centres unmarked),"ring closure, yield after HPLC","from Cc1cccc(C)c1-c1cc(OC2CNC(CC(C)C)c3ccccc32)nc(NS(=O)(=O)c2cccc(C(=O)O)c2)n1, amide bond, 13-membered ring, HATU/DIEA, DMF, 256.0 mM, 1.0 h",8%
Cc1cccc(C)c1-c1cc2nc(n1)NS(=O)(=O)c1cccc(c1)C(=O)N1Cc3cc(C(C)(C)C)ccc3[C@H](O2)[C@H]1CC(C)(C)C,"ring closure, yield after HPLC","from Cc1cccc(C)c1-c1cc(O[C@H]2c3ccc(C(C)(C)C)cc3CN[C@@H]2CC(C)(C)C)nc(NS(=O)(=O)c2cccc(C(=O)O)c2)n1, amide bond, 13-membered ring, HATU/NaOtBu, DMF/THF, 0.25 h, 2 steps",3%
Cc1cccc(C)c1-c1cc2nc(n1)NS(=O)(=O)c1cccc(c1)C(=O)N1CCOC[C@@H]1C(Cc1ccccc1)O2 (some centres unmarked),"ring closure, yield after HPLC","from Cc1cccc(C)c1-c1cc(OC(Cc2ccccc2)[C@H]2COCCN2)nc(NS(=O)(=O)c2cccc(C(=O)O)c2)n1, amide bond, 13-membered ring, HATU/DIEA, DMF, 61.0 mM, 25.0 °C, 1.5 h",74%
Cc1cccc(C)c1-c1cc2nc(n1)NS(=O)(=O)c1cccc(c1)C(=O)N1CCCC(O2)C1CC(C)C (centres unmarked),"ring closure, yield after HPLC","from Cc1cccc(C)c1-c1cc(Cl)nc(NS(=O)(=O)c2cccc(C(=O)N3CCCC(O)C3CC(C)C)c2)n1, snar bond, 13-membered ring, NaH, DMF, 17.2 mM, 25.0 °C, 40.0 h",17%
same,"ring closure, yield after HPLC","from Cc1cccc(C)c1-c1cc(Cl)nc(NS(=O)(=O)c2cccc(C(=O)N3CCCC(O)C3CC(C)C)c2)n1, snar bond, 13-membered ring, NaH, DMF, 18.3 mM, 25.0 °C, 24.0 h",24%
"Cc1cccc(C)c1-c1cc2nc(n1)NS(=O)(=O)c1cccc(c1)C(=O)N1CC[C@H](C1)O2 [Compound 214, (3R)-17-(2,6-Dimethylphenyl)-2-oxa-13λ^6-thia-6,14,16,19-tetraazatetracyclo[13.3.1.13,6.18,12]henicosa-1(19),8(20),9,11,15,17-hexaene-7,13,13-trione]","ring closure, yield after HPLC","from Cc1cccc(C)c1-c1cc(O[C@@H]2CCNC2)nc(NS(=O)(=O)c2cccc(C(=O)O)c2)n1, amide bond, 13-membered ring, HATU/TEA, DMF, 56.8 mM, 25.0 °C, 1.0 h",17%
Cc1cccc(C)c1-c1cc2nc(n1)NS(=O)(=O)c1cccc(c1)C(=O)N1CC3CCCN(C)C3C(C1)O2 (centres unmarked),"ring closure, yield after HPLC","from 3-[[4-(2,6-dimethylphenyl)-6-[(1-methyl-3,4,4a,5,6,7,8,8a-octahydro-2H-1,6-naphthyridin-8-yl)oxy]pyrimidin-2-yl]sulfamoyl]benzoic acid (Dihydrochloride salt), amide bond, 13-membered ring, HATU/DIEA, 25.0 °C",19%
"Cc1cccc(C)c1-c1cc2nc(n1)NS(=O)(=O)c1cccc(c1)C(=O)N1CCN(C(C)C(C)(C)C)C[C@H](C1)O2 (single isomer, unassigned; diastereomer 2)","ring closure, yield after HPLC",[3],33%
